What all share (experiment): relative viability (nuclei count vs DMSO), 5 days (fraction); higher = more cells survive
Compound in assay [1]: C=CCn1c(=O)c2cnc(Nc3ccc(N4CCN(C)CC4)cc3)nc2n1-c1cccc(C(C)(C)O)n1 [Adavosertib] + Cc1nc(NC(=O)N2CCC[C@H]2C(N)=O)sc1-c1ccnc(C(C)(C)C(F)(F)F)c1 [Alpelisib] (partner 2 µM)
The gist of the method: (§1)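 Relative viability divides the nuclei count in treated wells by that in vehicle wells. Lung cancer cell lines were seeded in 1536-well plates, dosed by pin tool the next day, and fixed and stained after 5 days in one step with final 0.05% Triton X-100, 1% formaldehyde and 1 ug/ml Hoechst. Dosing was a single drug or a fixed anchor-drug dose plus five library-drug doses (not always all listed) in √10 steps, and values are medians of duplicate plates imaged at 4×.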

Compound in assay [2]: C=CCn1c(=O)c2cnc(Nc3ccc(N4CCN(C)CC4)cc3)nc2n1-c1cccc(C(C)(C)O)n1 [Adavosertib] + Nc1ncn([C@H]2C[C@H](O)[C@@H](CO)O2)c(=O)n1 [Decitabine] (partner 2 µM)
The procedure, abridged:
as §1

Compound in assay [3]: COc1nc(N)nc2c1ncn2[C@@H]1O[C@H](CO)[C@@H](O)[C@@H]1O [Nelarabine] + CS(=O)(=O)CCNCc1ccc(-c2ccc3ncnc(Nc4ccc(OCc5cccc(F)c5)c(Cl)c4)c3c2)o1 [Lapatinib] (partner 2 µM)
The procedure, abridged:
as §1

Compound in assay [4]: COc1nc(N)nc2c1ncn2[C@@H]1O[C@H](CO)[C@@H](O)[C@@H]1O [Nelarabine] + Cc1nc(NC(=O)N2CCC[C@H]2C(N)=O)sc1-c1ccnc(C(C)(C)C(F)(F)F)c1 [Alpelisib] (partner 2 µM)
The gist of the method: as §1

Drawing on the supplement of paper PMC10307832, this text covers relative viability for 5 cell lines.

Turning to LK-2, the relative viability was 1.03 in assay [1] (first compound 0.01 µM); 1.23 in assay [1] (first compound 0.03162 µM); 1.14 in assay [1] (first compound 0.1 µM); 1.1 in assay [1] (first compound 0.3162 µM); 0.254 in assay [2] (first compound 0.01 µM); 0.346 in assay [2] (first compound 0.03162 µM). Moreover, the relative viability in assay [2] (first compound 0.1 µM) is 0.349; in assay [2] (first compound 0.3162 µM), 0.412; in assay [3] (first compound 0.01 µM), 1.23; in assay [3] (first compound 0.1 µM) it was 1.03; in assay [3] (first compound 0.3162 µM), 1.02; in assay [3] (first compound 1 µM), 1.05. The relative viability was 1.58 in assay [4] (first compound 0.01 µM), 1.13 in assay [4] (first compound 0.1 µM), 1.12 in assay [4] (first compound 0.3162 µM) and 1.04 in assay [4] (first compound 1 µM).

In the case of SK-LU-1, the relative viability is 1.04 in assay [1] (first compound 0.01 µM); 1.01 in assay [1] (first compound 0.03162 µM); 0.656 in assay [1] (first compound 0.1 µM); 0.291 in assay [1] (first compound 0.3162 µM); 0.616 in assay [2] (first compound 0.01 µM); 0.64 in assay [2] (first compound 0.03162 µM). Also, the relative viability in assay [2] (first compound 0.1 µM) amounted to 0.631; in assay [2] (first compound 0.3162 µM), 0.461; in assay [3] (first compound 0.01 µM) it was 1.24; in assay [3] (first compound 0.03162 µM), 0.617; in assay [3] (first compound 0.1 µM), 0.887; in assay [3] (first compound 0.3162 µM) it was 0.94. Further, the relative viability amounted to 0.885 in assay [3] (first compound 1 µM); 1.36 in assay [4] (first compound 0.01 µM); 0.608 in assay [4] (first compound 0.03162 µM); 0.87 in assay [4] (first compound 0.1 µM); 1.22 in assay [4] (first compound 0.3162 µM); 1 in assay [4] (first compound 1 µM).

As to NCI-H1755, the relative viability in assay [1] (first compound 0.01 µM) stood at 0.983; in assay [1] (first compound 0.03162 µM), 0.859; in assay [1] (first compound 0.1 µM), 0.856; in assay [1] (first compound 0.3162 µM) it was 0.868; in assay [2] (first compound 0.01 µM) it was 0.717; in assay [2] (first compound 0.03162 µM), 0.689. For the same cell line, the relative viability in assay [2] (first compound 0.1 µM) was 0.775; in assay [2] (first compound 0.3162 µM), 0.725; in assay [3] (first compound 0.01 µM), 1.27; in assay [3] (first compound 0.03162 µM), 0.937; in assay [3] (first compound 0.1 µM), 1.09; in assay [3] (first compound 0.3162 µM) it was 1.29. The relative viability in assay [3] (first compound 1 µM) was found to be 1.1; in assay [4] (first compound 0.01 µM), 1.13; in assay [4] (first compound 0.03162 µM), 0.879; in assay [4] (first compound 0.1 µM) it was 0.984; in assay [4] (first compound 0.3162 µM) it was 1.15; in assay [4] (first compound 1 µM) it was 1.08.

For NCI-H647, the relative viability was determined as 1.1 in assay [1] (first compound 0.01 µM); 1.1 in assay [1] (first compound 0.03162 µM); 1.02 in assay [1] (first compound 0.1 µM); 0.508 in assay [1] (first compound 0.3162 µM); 0.432 in assay [2] (first compound 0.01 µM); 0.455 in assay [2] (first compound 0.03162 µM). Also, the relative viability in assay [2] (first compound 0.1 µM) was found to be 0.456; in assay [2] (first compound 0.3162 µM), 0.322; in assay [3] (first compound 0.01 µM), 1.37; in assay [3] (first compound 0.03162 µM) it was 0.807; in assay [3] (first compound 0.1 µM) it was 1.11; in assay [3] (first compound 0.3162 µM) it was 1.34. The relative viability came out at 1.14 in assay [3] (first compound 1 µM); 1.2 in assay [4] (first compound 0.01 µM); 0.705 in assay [4] (first compound 0.03162 µM); 1.12 in assay [4] (first compound 0.1 µM); 1.56 in assay [4] (first compound 0.3162 µM); 1.19 in assay [4] (first compound 1 µM).

On to NCI-H1734, for which the relative viability in assay [1] (first compound 0.01 µM) was found to be 0.728; in assay [1] (first compound 0.03162 µM), 0.69; in assay [1] (first compound 0.1 µM), 0.707; in assay [1] (first compound 0.3162 µM), 0.624; in assay [2] (first compound 0.01 µM), 0.501; in assay [2] (first compound 0.03162 µM) it was 0.511. Moreover, the relative viability in assay [2] (first compound 0.1 µM) worked out at 0.474; in assay [2] (first compound 0.3162 µM), 0.363; in assay [3] (first compound 0.01 µM) it was 1.23; in assay [3] (first compound 0.03162 µM), 1.22; in assay [3] (first compound 0.1 µM) it was 1.09; in assay [3] (first compound 0.3162 µM) it was 1.08. Also, the relative viability in assay [3] (first compound 1 µM) was 1.06; in assay [4] (first compound 0.01 µM) it was 0.746; in assay [4] (first compound 0.03162 µM) it was 0.67; in assay [4] (first compound 0.1 µM), 0.709; in assay [4] (first compound 0.3162 µM), 0.653; in assay [4] (first compound 1 µM) it was 0.704.
